Experimental data from patent US10266537B2, “3-acetylenyl-pyrazole-pyrimidine derivative, and preparation method therefor and uses thereof” (Si Chuan University, priority 2015, dated 2019).

What was measured:
[1] = test system: transgenic FLK1-GFP fluorescent zebrafish; experiment: Anti-angiogenesis activity in transgenic zebrafish; format: in vivo; conditions: FLK1 transgenic zebrafish embryos; 10, 5 and 2.5 μg/mL; compared with the control group
Protocol: Angiogenesis inhibitory activity of the test compound is represented by the extent of inhibition vascular section between zebrafish with concentrations of 10 μg/mL, 5 μg/mL and 2.5 μg/mL. The positive control is Dasatinib, a drug in breast cancer clinical trials.
Zebrafish Embryo Access: The zebrafish used in this experiment is a vascular fluorescence transgenic zebrafish (FLK1: GFP). The breeding and breeding of zebrafish is based on Westerfield's method. In the day before egg collection, the male and female zebrafish were paired by the ratio 1:1 a. The next day, they natural mating and spawning at a temperature of about 28° C. and sufficient light. Sufficient zebrafish embryos were collected, washed and placed in embryonic culture medium and placed in a 28° C. incubator. The use of morphological and development criteria to identify survival at any time, dead embryos were white, should be promptly removed to prevent water quality deterioration. […]
Results observed: After zebrafish embryos fertilized 31 h, stripped shell eggs. The embryos were then placed on slides and fixed with 1.5% methylcellulose containing 1‰ of triacaine, followed by observing the count of Inter segmental vessels (ISVs) under fluorescence microscopy.

BTK(R28H)(h) = BTK(R28H)(h) (Homo sapiens (Human), UniProt Q06187, R28H); experiment: Kinase inhibition assay (KinaseProfiler, 33P-ATP); format: biochemical; conditions: read-out: The percentage of the remaining active protein
Wee1(h) = Wee1(h) (Homo sapiens (Human), UniProt P30291); experiment: Kinase inhibition assay (KinaseProfiler, 33P-ATP); format: biochemical; conditions: read-out: The percentage of the remaining active protein
cKit(D816V)(h) = cKit(D816V)(h) (Homo sapiens (Human), UniProt P10721, D816V); experiment: Kinase inhibition assay (KinaseProfiler, 33P-ATP); format: biochemical; conditions: read-out: The percentage of the remaining active protein
PANC-1 = experiment: Cell proliferation inhibition assay (MTT); format: cell-based; conditions: Homo sapiens, 72 hours, read-out: Proliferation inhibitory activity IC50
Protocol: (§1) The cells were seeded in 96-well plates with 200 μL of cell suspension per well and incubated overnight in a cell culture medium with a cell concentration of 1 2×10^4 cells/mL. The next day, the supernatant was discarded (the suspension cell was centrifuged before it) and the cells were treated with gradient concentrations of the test compound, respectively. […] After 72 hours, add 20 μL of MTT reagent at a concentration of 5 mg/mL per well. After incubation for 2-4 h, the supernatant was discarded and 150 μL of DMSO was added to each well. […] Relative cell proliferation inhibition rate=([MUT]-[MUT])×100%/[MUT]. The experiment was repeated at least 3 times. Experimental data were expressed as mean, data statistics using t test, P<0.05 for the difference was statistically significant.

Tie2(R849W)(h) = Tie2(R849W)(h) (Homo sapiens (Human), UniProt Q02763, R849W); experiment: Kinase inhibition assay (KinaseProfiler, 33P-ATP); format: biochemical; conditions: read-out: The percentage of the remaining active protein
CaMKIIβ(h) = CaMKIIβ(h) (Homo sapiens (Human), UniProt Q13554); experiment: Kinase inhibition assay (KinaseProfiler, 33P-ATP); format: biochemical; conditions: read-out: The percentage of the remaining active protein
STK25(h) = STK25(h) (Homo sapiens (Human), UniProt O00506); experiment: Kinase inhibition assay (KinaseProfiler, 33P-ATP); format: biochemical; conditions: read-out: The percentage of the remaining active protein
Flt3(h) = Flt3(h) (Homo sapiens (Human), UniProt P36888); experiment: Kinase inhibition assay (KinaseProfiler, 33P-ATP); format: biochemical; conditions: 10 μM, read-out: The percentage of the remaining active protein
ALK6(h) = ALK6(h) (Homo sapiens (Human), UniProt O00238); experiment: Kinase inhibition assay (KinaseProfiler, 33P-ATP); format: biochemical; conditions: read-out: The percentage of the remaining active protein
TYK2(h) = TYK2(h) (Homo sapiens (Human), UniProt P29597); experiment: Kinase inhibition assay (KinaseProfiler, 33P-ATP); format: biochemical; conditions: read-out: The percentage of the remaining active protein
MuSK(h) = MuSK(h) (Homo sapiens (Human), UniProt O15146); experiment: Kinase inhibition assay (KinaseProfiler, 33P-ATP); format: biochemical; conditions: read-out: The percentage of the remaining active protein
Flt1 = Flt1 (Homo sapiens (Human), UniProt P17948); experiment: Kinase inhibition assay (KinaseProfiler, 33P-ATP); format: biochemical
CSK = CSK (Homo sapiens (Human), UniProt P41240); experiment: Kinase inhibition assay (KinaseProfiler, 33P-ATP); format: biochemical
Met(Y1248C)(h) = Met(Y1248C)(h) (Homo sapiens (Human), UniProt P08581, Y1248C); experiment: Kinase inhibition assay (KinaseProfiler, 33P-ATP); format: biochemical; conditions: read-out: The percentage of the remaining active protein
EphB1 = EphB1 (Homo sapiens (Human), UniProt P54762); experiment: Kinase inhibition assay (KinaseProfiler, 33P-ATP); format: biochemical; conditions: EphB1(h), read-out: The percentage of the remaining active protein
CaMKIV(h) = CaMKIV(h) (Homo sapiens (Human), UniProt Q16566); experiment: Kinase inhibition assay (KinaseProfiler, 33P-ATP); format: biochemical; conditions: read-out: The percentage of the remaining active protein
cSRC(h) = cSRC(h) (Homo sapiens (Human), UniProt P12931); experiment: Kinase inhibition assay (KinaseProfiler, 33P-ATP); format: biochemical; conditions: 10 μM, read-out: The percentage of the remaining active protein
GRK7(h) = GRK7(h) (Homo sapiens (Human), UniProt Q8WTQ7); experiment: Kinase inhibition assay (KinaseProfiler, 33P-ATP); format: biochemical; conditions: read-out: The percentage of the remaining active protein
MDA-MB-415 = experiment: Cell proliferation inhibition assay (MTT); format: cell-based; conditions: Homo sapiens, 72 hours, read-out: Proliferation inhibitory activity IC50
Protocol: as §1

CHK2(h) = CHK2(h) (Homo sapiens (Human), UniProt O96017); experiment: Kinase inhibition assay (KinaseProfiler, 33P-ATP); format: biochemical; conditions: read-out: The percentage of the remaining active protein
Flt3(D835Y)(h) = Flt3(D835Y)(h) (Homo sapiens (Human), UniProt P36888, D835Y); experiment: Kinase inhibition assay (KinaseProfiler, 33P-ATP); format: biochemical; conditions: read-out: The percentage of the remaining active protein
NEK3(h) = NEK3(h) (Homo sapiens (Human), UniProt P51956); experiment: Kinase inhibition assay (KinaseProfiler, 33P-ATP); format: biochemical; conditions: read-out: The percentage of the remaining active protein
Abl (M351T)(h) = Abl (M351T)(h) (Homo sapiens (Human), UniProt P00519, M351T); experiment: Kinase inhibition assay (KinaseProfiler, 33P-ATP); format: biochemical; conditions: read-out: The percentage of the remaining active protein
CHK2(I157T)(h) = CHK2(I157T)(h) (Homo sapiens (Human), UniProt O96017, I157T); experiment: Kinase inhibition assay (KinaseProfiler, 33P-ATP); format: biochemical; conditions: read-out: The percentage of the remaining active protein
CaMKIIδ(h) = CaMKIIδ(h) (Homo sapiens (Human), UniProt Q13557); experiment: Kinase inhibition assay (KinaseProfiler, 33P-ATP); format: biochemical; conditions: read-out: The percentage of the remaining active protein
PrKX(h) = PrKX(h) (Homo sapiens (Human), UniProt P51817); experiment: Kinase inhibition assay (KinaseProfiler, 33P-ATP); format: biochemical; conditions: read-out: The percentage of the remaining active protein
PAK5(h) = PAK5(h) (Homo sapiens (Human), UniProt Q9P286); experiment: Kinase inhibition assay (KinaseProfiler, 33P-ATP); format: biochemical; conditions: read-out: The percentage of the remaining active protein
Mnk2(h) = Mnk2(h) (Homo sapiens (Human), UniProt Q9HBH9); experiment: Kinase inhibition assay (KinaseProfiler, 33P-ATP); format: biochemical; conditions: read-out: The percentage of the remaining active protein

Sequence of CSK (P41240 whole entry): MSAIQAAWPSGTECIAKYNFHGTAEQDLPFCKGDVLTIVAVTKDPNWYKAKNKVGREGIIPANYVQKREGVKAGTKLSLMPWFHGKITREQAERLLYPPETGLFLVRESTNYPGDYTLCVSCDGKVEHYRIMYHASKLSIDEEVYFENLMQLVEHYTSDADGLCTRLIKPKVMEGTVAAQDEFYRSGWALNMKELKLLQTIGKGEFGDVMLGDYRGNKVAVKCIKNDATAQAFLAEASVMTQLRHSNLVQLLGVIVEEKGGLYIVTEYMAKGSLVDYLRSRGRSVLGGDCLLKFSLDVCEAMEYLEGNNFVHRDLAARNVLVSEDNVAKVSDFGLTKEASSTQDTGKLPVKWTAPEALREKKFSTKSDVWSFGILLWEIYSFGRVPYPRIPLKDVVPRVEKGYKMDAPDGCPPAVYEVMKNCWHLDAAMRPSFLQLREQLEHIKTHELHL
Sequence of Flt1 (P17948 27-1338): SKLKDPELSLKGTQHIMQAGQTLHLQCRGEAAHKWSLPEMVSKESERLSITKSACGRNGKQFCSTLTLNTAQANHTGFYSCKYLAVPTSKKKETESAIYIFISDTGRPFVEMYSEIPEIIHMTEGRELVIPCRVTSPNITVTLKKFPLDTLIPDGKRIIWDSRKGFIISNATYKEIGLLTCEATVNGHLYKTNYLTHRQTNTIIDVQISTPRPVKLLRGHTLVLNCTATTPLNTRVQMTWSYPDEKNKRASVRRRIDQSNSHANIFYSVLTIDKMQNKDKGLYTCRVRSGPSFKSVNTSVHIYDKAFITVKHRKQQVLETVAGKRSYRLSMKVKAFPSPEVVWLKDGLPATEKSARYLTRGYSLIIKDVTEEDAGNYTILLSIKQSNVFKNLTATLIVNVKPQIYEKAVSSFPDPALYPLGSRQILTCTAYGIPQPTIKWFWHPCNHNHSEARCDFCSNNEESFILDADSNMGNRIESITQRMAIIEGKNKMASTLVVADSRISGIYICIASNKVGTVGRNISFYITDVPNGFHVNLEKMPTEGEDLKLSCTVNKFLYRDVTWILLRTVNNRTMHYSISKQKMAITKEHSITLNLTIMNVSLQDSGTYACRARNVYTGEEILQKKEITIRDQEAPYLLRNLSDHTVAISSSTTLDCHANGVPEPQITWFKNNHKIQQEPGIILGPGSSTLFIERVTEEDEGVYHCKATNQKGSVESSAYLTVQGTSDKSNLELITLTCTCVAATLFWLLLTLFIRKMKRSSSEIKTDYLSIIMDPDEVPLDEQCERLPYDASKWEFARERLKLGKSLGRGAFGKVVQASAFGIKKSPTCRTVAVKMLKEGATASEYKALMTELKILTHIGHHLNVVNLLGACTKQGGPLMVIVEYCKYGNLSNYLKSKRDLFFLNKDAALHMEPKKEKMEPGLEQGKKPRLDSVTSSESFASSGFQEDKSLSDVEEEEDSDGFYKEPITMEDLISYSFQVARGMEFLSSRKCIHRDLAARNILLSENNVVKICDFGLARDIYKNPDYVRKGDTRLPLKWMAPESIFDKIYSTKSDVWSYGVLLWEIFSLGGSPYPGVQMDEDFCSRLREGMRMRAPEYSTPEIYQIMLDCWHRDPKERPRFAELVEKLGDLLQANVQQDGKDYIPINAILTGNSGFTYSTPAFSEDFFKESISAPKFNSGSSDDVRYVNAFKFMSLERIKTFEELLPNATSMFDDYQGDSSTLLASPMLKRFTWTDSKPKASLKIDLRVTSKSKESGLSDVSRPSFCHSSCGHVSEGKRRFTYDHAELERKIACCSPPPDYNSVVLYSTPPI
Sequence of cKit(D816V)(h) (P10721 26-976 D816V): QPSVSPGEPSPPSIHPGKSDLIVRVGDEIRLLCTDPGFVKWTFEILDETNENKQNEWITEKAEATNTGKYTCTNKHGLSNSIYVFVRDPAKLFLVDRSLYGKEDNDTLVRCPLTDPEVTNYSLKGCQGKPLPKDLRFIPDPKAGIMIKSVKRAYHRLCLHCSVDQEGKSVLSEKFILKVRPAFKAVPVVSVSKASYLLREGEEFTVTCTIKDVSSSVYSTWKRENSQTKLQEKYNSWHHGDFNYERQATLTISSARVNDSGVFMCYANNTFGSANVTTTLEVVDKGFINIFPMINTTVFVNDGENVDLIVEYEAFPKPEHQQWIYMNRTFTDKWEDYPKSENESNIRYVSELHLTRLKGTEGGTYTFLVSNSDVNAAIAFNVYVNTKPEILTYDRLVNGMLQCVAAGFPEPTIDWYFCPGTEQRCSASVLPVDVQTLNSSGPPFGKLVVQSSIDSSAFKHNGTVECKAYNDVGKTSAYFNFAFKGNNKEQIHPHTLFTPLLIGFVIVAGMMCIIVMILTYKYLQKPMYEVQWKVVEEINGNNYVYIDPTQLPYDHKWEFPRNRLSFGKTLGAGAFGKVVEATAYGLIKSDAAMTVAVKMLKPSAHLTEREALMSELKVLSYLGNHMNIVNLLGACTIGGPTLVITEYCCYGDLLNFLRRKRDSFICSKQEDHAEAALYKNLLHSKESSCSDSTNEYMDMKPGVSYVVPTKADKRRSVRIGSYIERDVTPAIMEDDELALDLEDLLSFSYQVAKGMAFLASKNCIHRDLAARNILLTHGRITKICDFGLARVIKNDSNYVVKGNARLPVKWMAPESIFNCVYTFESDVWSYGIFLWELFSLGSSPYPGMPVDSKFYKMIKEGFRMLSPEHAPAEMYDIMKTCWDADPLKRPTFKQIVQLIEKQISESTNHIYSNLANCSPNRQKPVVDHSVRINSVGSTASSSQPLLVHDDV
Sequence of Met(Y1248C)(h) (P08581 other isoform, or with tags, fused parts or gaps Y1248C): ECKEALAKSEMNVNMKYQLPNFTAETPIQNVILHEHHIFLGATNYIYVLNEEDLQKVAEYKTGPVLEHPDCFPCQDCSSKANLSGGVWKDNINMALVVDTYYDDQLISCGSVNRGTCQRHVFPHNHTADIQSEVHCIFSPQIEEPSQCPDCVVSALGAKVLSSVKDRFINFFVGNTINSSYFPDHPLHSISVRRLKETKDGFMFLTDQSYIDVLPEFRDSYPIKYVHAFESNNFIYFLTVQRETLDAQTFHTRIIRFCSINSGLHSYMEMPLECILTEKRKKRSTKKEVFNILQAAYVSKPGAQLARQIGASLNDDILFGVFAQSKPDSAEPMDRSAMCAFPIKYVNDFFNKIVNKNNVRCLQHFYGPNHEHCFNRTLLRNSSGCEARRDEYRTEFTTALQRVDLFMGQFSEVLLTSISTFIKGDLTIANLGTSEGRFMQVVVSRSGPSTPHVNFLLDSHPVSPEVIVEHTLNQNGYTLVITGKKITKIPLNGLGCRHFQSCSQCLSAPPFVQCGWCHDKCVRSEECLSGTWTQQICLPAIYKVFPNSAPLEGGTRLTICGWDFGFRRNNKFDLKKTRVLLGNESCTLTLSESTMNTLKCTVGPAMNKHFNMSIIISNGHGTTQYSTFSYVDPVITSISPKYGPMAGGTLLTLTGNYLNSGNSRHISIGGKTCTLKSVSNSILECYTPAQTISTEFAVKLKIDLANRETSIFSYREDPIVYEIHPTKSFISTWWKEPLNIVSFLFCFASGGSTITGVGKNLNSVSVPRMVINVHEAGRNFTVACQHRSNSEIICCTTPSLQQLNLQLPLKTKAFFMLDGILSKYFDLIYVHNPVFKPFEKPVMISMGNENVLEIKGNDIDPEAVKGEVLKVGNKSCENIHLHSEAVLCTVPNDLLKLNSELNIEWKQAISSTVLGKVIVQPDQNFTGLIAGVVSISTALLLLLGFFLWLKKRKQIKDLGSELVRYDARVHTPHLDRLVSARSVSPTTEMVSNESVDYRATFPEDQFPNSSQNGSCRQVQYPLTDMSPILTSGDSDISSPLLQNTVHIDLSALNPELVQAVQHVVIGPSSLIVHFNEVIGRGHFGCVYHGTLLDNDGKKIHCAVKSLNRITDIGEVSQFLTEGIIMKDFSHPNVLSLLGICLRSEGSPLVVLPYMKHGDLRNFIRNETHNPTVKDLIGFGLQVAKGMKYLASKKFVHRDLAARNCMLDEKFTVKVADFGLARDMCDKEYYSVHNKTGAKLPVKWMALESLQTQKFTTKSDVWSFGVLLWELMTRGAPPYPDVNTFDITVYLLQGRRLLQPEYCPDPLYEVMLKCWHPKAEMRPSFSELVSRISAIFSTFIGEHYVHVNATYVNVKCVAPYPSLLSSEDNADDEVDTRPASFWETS
Sequence of BTK(R28H)(h) (Q06187 whole entry R28H): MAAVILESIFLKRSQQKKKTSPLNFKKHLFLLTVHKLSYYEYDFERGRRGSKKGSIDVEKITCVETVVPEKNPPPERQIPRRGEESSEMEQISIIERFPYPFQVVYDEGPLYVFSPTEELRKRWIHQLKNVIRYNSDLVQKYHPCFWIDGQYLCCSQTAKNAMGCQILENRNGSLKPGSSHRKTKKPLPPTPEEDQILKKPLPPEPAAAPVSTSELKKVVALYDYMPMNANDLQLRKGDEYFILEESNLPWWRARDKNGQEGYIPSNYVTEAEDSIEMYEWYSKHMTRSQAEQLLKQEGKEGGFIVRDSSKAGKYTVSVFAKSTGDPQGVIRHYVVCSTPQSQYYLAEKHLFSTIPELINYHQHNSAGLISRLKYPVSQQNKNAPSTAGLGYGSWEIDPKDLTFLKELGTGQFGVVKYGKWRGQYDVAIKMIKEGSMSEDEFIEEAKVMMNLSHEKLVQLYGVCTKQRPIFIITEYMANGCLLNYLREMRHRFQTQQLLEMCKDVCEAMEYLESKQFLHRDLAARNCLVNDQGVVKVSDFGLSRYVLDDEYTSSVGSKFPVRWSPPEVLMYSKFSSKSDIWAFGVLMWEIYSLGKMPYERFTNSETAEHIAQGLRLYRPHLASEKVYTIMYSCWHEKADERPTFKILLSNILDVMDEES

Cc1ccc(NC(=O)c2cccc(C(F)(F)F)c2)cc1C#Cc1nn(C2CCN(C)CC2)c2ncnc(N)c12 [Compound 31]
inhibition of angiogenesis (inter segmental vessels) [1]: inhibit the angiogenesis of zebrafish significantly

Cc1ccc(NC(=O)c2ccc(C)c(C(F)(F)F)c2)cc1C#Cc1nn([C@H]2CC[C@H](O)CC2)c2ncnc(N)c12 [Compound 93]
remaining activity at 10 µM (BTK(R28H)(h)): 71%
remaining activity at 10 µM (Wee1(h)): 95%
remaining activity at 10 µM (cKit(D816V)(h)): 9%
IC50 (PANC-1): 1700 to 5000 nM
remaining activity at 10 µM (Tie2(R849W)(h)): 0%
remaining activity at 10 µM (CaMKIIβ(h)): 85%
remaining activity at 10 µM (STK25(h)): 66%
remaining activity at 10 µM (Flt3(h)): 73%
remaining activity at 10 µM (ALK6(h)): 18%
remaining activity at 10 µM (TYK2(h)): 36%
remaining activity at 10 µM (MuSK(h)): 70%
remaining activity at 10 µM (Flt1; Flt1(h), 10 μM, read-out: The percentage of the remaining active protein): 3%
IC50 (Flt1; Flt1, ATP at Km): 15 nM
remaining activity at 10 µM (CSK; CSK(h), 10 μM, read-out: The percentage of the remaining active protein): -1%
IC50 (CSK; CSK, ATP at Km): 9 nM
remaining activity at 10 µM (Met(Y1248C)(h)): 139%
remaining activity at 10 µM (EphB1): -1%
remaining activity at 10 µM (CaMKIV(h)): 93%
remaining activity at 10 µM (cSRC(h)): 0%
remaining activity at 10 µM (GRK7(h)): 101%
IC50 (MDA-MB-415): ~10000 nM
remaining activity at 10 µM (CHK2(h)): 111%
remaining activity at 10 µM (Flt3(D835Y)(h)): 118%
remaining activity at 10 µM (NEK3(h)): 102%
remaining activity at 10 µM (Abl (M351T)(h)): 0%
remaining activity at 10 µM (CHK2(I157T)(h)): 103%
remaining activity at 10 µM (CaMKIIδ(h)): 89%
remaining activity at 10 µM (PrKX(h)): 105%
remaining activity at 10 µM (PAK5(h)): 89%
remaining activity at 10 µM (Mnk2(h)): 96%
